Reference: patent publication US12128105B2, “Molecular degraders of extracellular proteins” (priority 2021, dated 2024)

What was measured:
[1] = system: α-DNP antibody / ASGPR on hepatocytes; assay: Ternary complex formation between hepatocytes and α-DNP antibody; assay type: cell-based
α-DNP antibody [2] = assay: Endocytosis of α-DNP antibody in hepatocytes; assay type: cell-based; conditions: FIG. 6C; 12 hour time point
α-DNP antibody [3] = assay: Colocalization microscopy studies (Alexa 488 signal, EEA1/LAMP2); assay type: cell-based; conditions: FIG. 7A
Description: Cells were grown in 8-well microscope cell culture containers (Thermo, 177402) treated with polylysine (Fisher Scientific, 343810001). For all experiments, D-MoDE-A was used at a final concentration of 40 nM, and antibody was used at a final concentration of 100 nM. At 12 hours, cell culture media was removed and cells were washed with PBS once before fixation with 3.5% formaldehyde PBS solution for 13 minutes. Cells were then washed with PBS, and permeabilized for 5 minutes with 0.5% triton X-100 in PBS. Cells were blocked with 0.2% tween in TBS (Tween 20, AmericanBio, Ref AB02038-00500) and 3% BSA (Sigma, A9418) for one hour at room temperature. […] After incubation for 1 hour in a humidified chamber protected from light, cells were washed 3× with PBST for 5 minutes each. Cells were then treated with Alexa Fluor 568-labeled secondary antibody (Abcam, ab175473) at 1:500 dilution. Cells were washed 3× with PBST for 5 minutes each, then treated with PBS containing Hoechst stain (final concentration 1 μg/mL), incubated at room temperature for at least 10 minutes, and imaged. Cells were visualized using a Zeiss Axio Observer Z1 inverted microscope using 63× magnification under oil. Image analysis was performed on ZEN2 (blue edition) version 2.0.0.0.

α-DNP antibody [4] = assay: In vivo serum levels of α-DNP antibody in mice (ELISA); conditions: FIG. 8D, single variable dose
Description: In vivo experiments were performed under Yale University IACUC supervision following protocol entitled “pre-clinical evaluation of small molecule immunomodulators” (Protocol number 2017-11445). Experiments were performed in male nude mice purchased from Jackson Laboratory (NU/J, Stock No. 002019). Compounds were administered i.p. in a volume of 100 μL PBS. Approximately 25 μL of blood was collected at each time point by saphenous bleed. Antibody was administered as 40 μg in 100 μL i.p. Compounds were administered daily at the specified dose throughout the course of experiments. For data analysis, antibody levels were normalized to the recorded concentration of antibody observed in each mouse 24 hours after the i.p. administration.
ELISA analysis of serum samples was performed using MaxiSorp 96 well plates (Thermo, 44-2404-21). Plates were coated with 50 μL of BSA-DNP (Invitrogen, A23018) at 100 ug/mL in PBS and incubated at 4° C. overnight. Coating solution was then removed, and the plates were blocked with 2% BSA in PBS for 2 hours at room temperature, followed by washing twice with PBST (0.2% Tween). Serum samples were diluted in 2% BSA in PBS. […] The plates were then treated with TMB (Thermo 34028) followed by 2 M H2SO4 and analyzed for OD at 450 nm on a plate reader (BioTek Synergy 2). Sample concentrations were determined against a standard curve.

Compound: CC(=O)N[C@H]1[C@H](OCCOCCOCCNC(=O)CCOCC(COCCC(=O)NCCOCCOCCO[C@@H]2O[C@H](CO)[C@H](O)[C@H](O)[C@H]2NC(C)=O)(COCCC(=O)NCCOCCOCCO[C@@H]2O[C@H](CO)[C@H](O)[C@H](O)[C@H]2NC(C)=O)NC(=O)CNC(=O)COCCOCCOCCNc2ccc([N+](=O)[O-])cc2[N+](=O)[O-])O[C@H](CO)[C@H](O)[C@@H]1O [D-MoDE-A]
- formation of a ternary complex between hepatocytes and α-DNP antibody ([1]; FIG. 6A): dependent on the concentration of D-MoDE-A
- ternary complex formation in presence of competitive binders of ASGPR or α-DNP antibody ([1]; FIG. 6B): inhibited by competitive binders of either ASGPR or α-DNP antibody
- endocytosis of α-DNP antibody in hepatocytes (α-DNP antibody [2]): dependent on both α-DNP antibody and DMoDE-A concentration
- Alexa 488 signal in colocalization studies (α-DNP antibody [3]): dependent on the presence of α-DNP antibody and D-MoDE-A
- serum levels of α-DNP antibody (α-DNP antibody [4]): decrease in serum levels of α-DNP antibody
